*1 amine or outer side, *2 acyl side, *3 side chain or, on linkers, in order; H or OH if unused. Where a SMILES comes first, the peptide text is derived from it. Bridges are numbered along the chain shown (N, C = ends). [ ]: non-standard residue; d: D form. The star is where a group is joined. Phe(3-CF3) = N[C@@H](Cc1cccc(C(F)(F)F)c1)C(=O)O; Ala(morpholin-4-yl) = N[C@@H](CN1CCOCC1)C(=O)O; Phe(4-COOH) = N[C@@H](Cc1ccc(C(=O)O)cc1)C(=O)O; Bip = N[C@@H](Cc1ccc(-c2ccccc2)cc1)C(=O)O; γGlu = O=C(O)[C@H](CCC(=O)[*:2])N[*:1]; Abu(3S-NH2) = C[C@H](N)[C@H](N)C(=O)O; NH(CH2)12COOH = O=C(O)CCCCCCCCCCCCN*; Val(3-OH) = CC(C)(O)[C@H](N)C(=O)O; Cha = N[C@@H](CC1CCCCC1)C(=O)O; Cit = NC(=O)NCCC[C@H](N)C(=O)O; Carboxymethyl = O=C(O)C*; NMeA = CN[C@@H](C)C(=O)O; Dab = NCC[C@H](N)C(=O)O; AEEA = NCCOCCOCC(=O)O
Each compound was assayed against T1, PD-1/PD-L1 interaction (PE-labeled human PD-L1-Ig binding to Jurkat cell line over-expressing human PD-1) (Homo sapiens, UniProt Q15116) (assay: Jurkat-PD-1 Cell Binding High-Content Screening Assay (CBA)). Details: Jurkat-hPD-1 cells, PE-labeled PD-L1-Ig 20 nM final; read-out: Jurkat HPD1 PDL1 IC50.
T1 construct: expressed in transfected cells; host or cells: Jurkat
In short: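 High-content imaging read-out of PE-PD-L1-Ig binding (20 nM final, 1 h) to Jurkat-hPD-1 cells, after 2 h compound exposure at 37 °C in DMEM with 10% FCS. Nuclei counterstained with Hoechst 33342 after paraformaldehyde fixation.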

T1 sequence (Q15116 25-288): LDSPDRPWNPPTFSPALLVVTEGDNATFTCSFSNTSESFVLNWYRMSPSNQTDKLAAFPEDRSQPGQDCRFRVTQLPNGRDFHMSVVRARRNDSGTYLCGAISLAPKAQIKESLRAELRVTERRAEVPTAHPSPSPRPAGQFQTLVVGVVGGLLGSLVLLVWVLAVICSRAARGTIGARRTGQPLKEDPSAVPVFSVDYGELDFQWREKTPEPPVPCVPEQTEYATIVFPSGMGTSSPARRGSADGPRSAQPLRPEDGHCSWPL

Which IC50 does the source give for `CC(C)C[C@H]1NC(=O)[C@H](C)N(C)C(=O)[C@H](CCC(N)=O)NC(=O)[C@H](Cc2ccc(-c3ccccc3)cc2)NC(=O)[C@H](Cc2ccc(C(=O)O)cc2)NC(=O)[C@H](Cc2cccc(C(F)(F)F)c2)NC(=O)[C@H](CC(=O)O)NC(=O)[C@H](Cc2ccc(OCC(=O)O)cc2)NC(=O)[C@H](Cc2ccc(C(=O)O)cc2)NC(=O)CSC[C@@H](C(=O)N[C@@H](CCN)C(=O)NCCOCCOCC(=O)N[C@@H](CCC(=O)NCCOCCOCC(=O)NCCCCCCCCCCCCC(=O)O)C(=O)O)NC(=O)[C@H](CC(=O)O)NC(=O)[C@H](C(C)(C)O)NC(=O)[C@H](CC2CCCCC2)NC(=O)[C@H](CCN)NC1=O` [Example 1182] ({CH2CO}-[Phe(4-COOH)]Y(Carboxymethyl)D[Phe(3-CF3)][Phe(4-COOH)][Bip]Q[NMeA][dL][Dab][Cha][Val(3-OH)]DC[Dab][AEEA][γGlu][AEEA]-{NH(CH2)12COOH}; thioether N-14) here?
Its IC50 is 93 nM.

For `CC(C)C[C@H]1NC(=O)[C@H](C)N(C)C(=O)[C@H](CCC(N)=O)NC(=O)[C@H](Cc2ccc(-c3ccccc3)cc2)NC(=O)[C@H](Cc2ccc(C(=O)O)cc2)NC(=O)[C@H](Cc2cccc(C(F)(F)F)c2)NC(=O)[C@H](CC(=O)O)NC(=O)[C@H](Cc2ccc(OCC(=O)O)cc2)NC(=O)[C@H](Cc2ccc(C(=O)O)cc2)NC(=O)CSC[C@@H](C(=O)N[C@@H](CCN)C(=O)NCCOCCOCC(=O)N[C@@H](CCC(=O)NCCOCCOCC(=O)NCCCCCCCCCCCCC(=O)O)C(=O)O)NC(=O)[C@H](CCC(=O)O)NC(=O)[C@H](C(C)C)NC(=O)[C@H](CC2CCCCC2)NC(=O)[C@H](CCN)NC1=O` [Example 1183] ({CH2CO}-[Phe(4-COOH)]Y(Carboxymethyl)D[Phe(3-CF3)][Phe(4-COOH)][Bip]Q[NMeA][dL][Dab][Cha]VEC[Dab][AEEA][γGlu][AEEA]-{NH(CH2)12COOH}; thioether N-14), which IC50 is on record?
Its IC50 is 94.1 nM.

Which IC50 does the source give for `CC(C)C[C@H]1NC(=O)[C@H](C)N(C)C(=O)[C@H](CCC(N)=O)NC(=O)[C@H](Cc2ccc(-c3ccccc3)cc2)NC(=O)[C@H](Cc2ccc(C(=O)O)cc2)NC(=O)[C@H](Cc2cccc(C(F)(F)F)c2)NC(=O)[C@H](CC(=O)O)NC(=O)[C@H](Cc2ccc(OCC(=O)O)cc2)NC(=O)[C@H](Cc2ccc(C(=O)O)cc2)NC(=O)CSC[C@@H](C(=O)N[C@@H](CCN)C(=O)NCCOCCOCC(=O)N[C@@H](CCC(=O)NCCOCCOCC(=O)NCCCCCCCCCCCCC(=O)O)C(=O)O)NC(=O)[C@H](CO)NC(=O)[C@H](C(C)(C)O)NC(=O)[C@H](CC2CCCCC2)NC(=O)[C@H](CCN)NC1=O` [Example 1184] ({CH2CO}-[Phe(4-COOH)]Y(Carboxymethyl)D[Phe(3-CF3)][Phe(4-COOH)][Bip]Q[NMeA][dL][Dab][Cha][Val(3-OH)]SC[Dab][AEEA][γGlu][AEEA]-{NH(CH2)12COOH}; thioether N-14) here?
Its IC50 is 44 nM.

With `CC(=O)NCCCC[C@@H]1NC(=O)[C@H](C(C)(C)O)NC(=O)[C@H](CC2CCCCC2)NC(=O)[C@H](CCN)NC(=O)[C@@H](CC(C)C)NC(=O)[C@H](C)N(C)C(=O)[C@H](CCC(N)=O)NC(=O)[C@H](Cc2ccc(-c3ccccc3)cc2)NC(=O)[C@H](Cc2ccc(C(=O)O)cc2)NC(=O)[C@H](Cc2cccc(C(F)(F)F)c2)NC(=O)[C@H](CC(=O)O)NC(=O)[C@H](Cc2ccc(OCC(=O)O)cc2)NC(=O)[C@H](Cc2ccc(C(=O)O)cc2)NC(=O)CSC[C@@H](C(=O)N[C@@H](CCN)C(=O)NCCOCCOCC(=O)N[C@@H](CCC(=O)NCCOCCOCC(=O)NCCCCCCCCCCCCC(=O)O)C(=O)O)NC1=O` [Example 1185] ({CH2CO}-[Phe(4-COOH)]Y(Carboxymethyl)D[Phe(3-CF3)][Phe(4-COOH)][Bip]Q[NMeA][dL][Dab][Cha][Val(3-OH)]K(Ac)C[Dab][AEEA][γGlu][AEEA]-{NH(CH2)12COOH}; thioether N-14) as the compound, how does the IC50 read?
Its IC50 is 50.2 nM.

Which IC50 does the source give for `CC(C)C[C@H]1NC(=O)[C@H](C)N(C)C(=O)[C@H](CCCNC(N)=O)NC(=O)[C@H](Cc2ccc(-c3ccccc3)cc2)NC(=O)[C@H](Cc2ccc(C(=O)O)cc2)NC(=O)[C@H](Cc2cccc(C(F)(F)F)c2)NC(=O)[C@H](CC(=O)O)NC(=O)[C@H](Cc2ccc(OCC(=O)O)cc2)NC(=O)[C@H](Cc2ccc(C(=O)O)cc2)NC(=O)CSC[C@@H](C(=O)N[C@@H](CCN)C(=O)NCCOCCOCC(=O)N[C@@H](CCC(=O)NCCOCCOCC(=O)NCCCCCCCCCCCCC(=O)O)C(=O)O)NC(=O)[C@H](CC(=O)O)NC(=O)[C@H](C(C)(C)O)NC(=O)[C@H](CC2CCCCC2)NC(=O)[C@H](CCN)NC1=O` [Example 1186] ({CH2CO}-[Phe(4-COOH)]Y(Carboxymethyl)D[Phe(3-CF3)][Phe(4-COOH)][Bip][Cit][NMeA][dL][Dab][Cha][Val(3-OH)]DC[Dab][AEEA][γGlu][AEEA]-{NH(CH2)12COOH}; thioether N-14) here?
The IC50 was 108 nM.

Which IC50 does the source give for `CC(C)C[C@H]1NC(=O)[C@H](C)N(C)C(=O)[C@H](CCCNC(N)=O)NC(=O)[C@H](Cc2ccc(-c3ccccc3)cc2)NC(=O)[C@H](Cc2ccc(C(=O)O)cc2)NC(=O)[C@H](Cc2cccc(C(F)(F)F)c2)NC(=O)[C@H](CC(=O)O)NC(=O)[C@H](Cc2ccc(OCC(=O)O)cc2)NC(=O)[C@H](Cc2ccc(C(=O)O)cc2)NC(=O)CSC[C@@H](C(=O)N[C@@H](CCN)C(=O)NCCOCCOCC(=O)N[C@@H](CCC(=O)NCCOCCOCC(=O)NCCCCCCCCCCCCC(=O)O)C(=O)O)NC(=O)[C@H](CO)NC(=O)[C@H](C(C)(C)O)NC(=O)[C@H](CC2CCCCC2)NC(=O)[C@H](CCN)NC1=O` [Example 1187] ({CH2CO}-[Phe(4-COOH)]Y(Carboxymethyl)D[Phe(3-CF3)][Phe(4-COOH)][Bip][Cit][NMeA][dL][Dab][Cha][Val(3-OH)]SC[Dab][AEEA][γGlu][AEEA]-{NH(CH2)12COOH}; thioether N-14) here?
The IC50 was 37.7 nM.

How did the IC50 turn out when `CC(C)C[C@H]1NC(=O)[C@H](C)N(C)C(=O)[C@H](CCC(N)=O)NC(=O)[C@H](Cc2ccc(-c3ccccc3)cc2)NC(=O)[C@H](Cc2ccc(C(=O)O)cc2)NC(=O)[C@H](Cc2cccc(C(F)(F)F)c2)NC(=O)[C@H](CC(=O)O)NC(=O)[C@H](Cc2ccc(OCC(=O)O)cc2)NC(=O)[C@H](CN2CCOCC2)NC(=O)CSC[C@@H](C(=O)N[C@@H](CCN)C(=O)NCCCCCCCCCCCCC(=O)O)NC(=O)[C@H](Cc2c[nH]cn2)NC(=O)[C@H](C(C)(C)O)NC(=O)[C@H](CC2CCCCC2)NC(=O)[C@H](CCN)NC1=O` [Example 1188] ({CH2CO}-[Ala(morpholin-4-yl)]Y(Carboxymethyl)D[Phe(3-CF3)][Phe(4-COOH)][Bip]Q[NMeA][dL][Dab][Cha][Val(3-OH)]HC[Dab]-{NH(CH2)12COOH}; thioether N-14) was run?
The IC50 was 20.5 nM.

For `CC(C)C[C@H]1NC(=O)[C@H](C)N(C)C(=O)[C@H](CCC(N)=O)NC(=O)[C@H](Cc2ccc(-c3ccccc3)cc2)NC(=O)[C@H](Cc2ccc(C(=O)O)cc2)NC(=O)[C@H](Cc2cccc(C(F)(F)F)c2)NC(=O)[C@H](CC(=O)O)NC(=O)[C@H](Cc2ccc(OCC(=O)O)cc2)NC(=O)[C@H]([C@H](C)N)NC(=O)CSC[C@@H](C(=O)N[C@@H](CCN)C(=O)NCCCCCCCCCCCCC(=O)O)NC(=O)[C@H](CO)NC(=O)[C@H](C(C)(C)O)NC(=O)[C@H](CC2CCCCC2)NC(=O)[C@H](CCN)NC1=O` [Example 1190] ({CH2CO}-[Abu(3S-NH2)]Y(Carboxymethyl)D[Phe(3-CF3)][Phe(4-COOH)][Bip]Q[NMeA][dL][Dab][Cha][Val(3-OH)]SC[Dab]-{NH(CH2)12COOH}; thioether N-14), which IC50 is on record?
The IC50 was 18 nM.

Which IC50 does the source give for `CC(=O)NCCCC[C@@H]1NC(=O)[C@H](C(C)(C)O)NC(=O)[C@H](CC2CCCCC2)NC(=O)[C@H](CCN)NC(=O)[C@@H](CC(C)C)NC(=O)[C@H](C)N(C)C(=O)[C@H](CCC(N)=O)NC(=O)[C@H](Cc2ccc(-c3ccccc3)cc2)NC(=O)[C@H](Cc2ccc(C(=O)O)cc2)NC(=O)[C@H](Cc2cccc(C(F)(F)F)c2)NC(=O)[C@H](CC(=O)O)NC(=O)[C@H](Cc2ccc(OCC(=O)O)cc2)NC(=O)[C@H]([C@H](C)N)NC(=O)CSC[C@@H](C(=O)N[C@@H](CCN)C(=O)NCCCCCCCCCCCCC(=O)O)NC1=O` [Example 1191] ({CH2CO}-[Abu(3S-NH2)]Y(Carboxymethyl)D[Phe(3-CF3)][Phe(4-COOH)][Bip]Q[NMeA][dL][Dab][Cha][Val(3-OH)]K(Ac)C[Dab]-{NH(CH2)12COOH}; thioether N-14) here?
The IC50 was 7.4 nM.

How did the IC50 turn out when `CC(C)C[C@H]1NC(=O)[C@H](C)N(C)C(=O)[C@H](CCC(N)=O)NC(=O)[C@H](Cc2ccc(-c3ccccc3)cc2)NC(=O)[C@H](Cc2ccc(C(=O)O)cc2)NC(=O)[C@H](Cc2cccc(C(F)(F)F)c2)NC(=O)[C@H](CC(=O)O)NC(=O)[C@H](Cc2ccc(OCC(=O)O)cc2)NC(=O)[C@H]([C@H](C)N)NC(=O)CSC[C@@H](C(=O)N[C@@H](CCN)C(=O)NCCCCCCCCCCCCC(=O)O)NC(=O)[C@H](Cc2c[nH]cn2)NC(=O)[C@H](C(C)(C)O)NC(=O)[C@H](CC2CCCCC2)NC(=O)[C@H](CCN)NC1=O` [Example 1192] ({CH2CO}-[Abu(3S-NH2)]Y(Carboxymethyl)D[Phe(3-CF3)][Phe(4-COOH)][Bip]Q[NMeA][dL][Dab][Cha][Val(3-OH)]HC[Dab]-{NH(CH2)12COOH}; thioether N-14) was run?
Its IC50 is 17.5 nM.

Which IC50 does the source give for `CC(C)C[C@H]1NC(=O)[C@H](C)N(C)C(=O)[C@H](CCCNC(N)=O)NC(=O)[C@H](Cc2ccc(-c3ccccc3)cc2)NC(=O)[C@H](Cc2ccc(C(=O)O)cc2)NC(=O)[C@H](Cc2cccc(C(F)(F)F)c2)NC(=O)[C@H](CC(=O)O)NC(=O)[C@H](Cc2ccc(OCC(=O)O)cc2)NC(=O)[C@H](CN2CCOCC2)NC(=O)CSC[C@@H](C(=O)N[C@@H](CCN)C(=O)NCCCCCCCCCCCCC(=O)O)NC(=O)[C@H](Cc2c[nH]cn2)NC(=O)[C@H](C(C)(C)O)NC(=O)[C@H](CC2CCCCC2)NC(=O)[C@H](CCN)NC1=O` [Example 1193] ({CH2CO}-[Ala(morpholin-4-yl)]Y(Carboxymethyl)D[Phe(3-CF3)][Phe(4-COOH)][Bip][Cit][NMeA][dL][Dab][Cha][Val(3-OH)]HC[Dab]-{NH(CH2)12COOH}; thioether N-14) here?
The IC50 was 15.6 nM.

From patent publication US20260070945A1, “MACROCYCLIC IMMUNOMODULATORS” (Bristol-Myers Squibb Company, priority 2022, published 2026)
